Patent US20240415851A1, “REMODILINS TO PREVENT OR TREAT CANCER METASTASIS, GLAUCOMA, AND HYPOXIA” (The University of Chicago, priority 2019, published 2024)
Entries after “also recorded” stand apart in the source; their conditions may differ. Like-named read-outs stand apart in the source and are kept apart here.

Columns and labels:
[1] = test system: human lung-derived fibroblasts; assay: TGFβ-induced myofibroblast transformation (ACTA2, FN1 protein expression); format: cell-based; conditions: 1 ng/mL TGFβ1; 0, 1, 3, or 10 μM remodilin for 2 d; dose-dependent
Protocol: FIG. 1 Remodilins inhibit myofibroblast transformation (MFT). Serum deprived human lung-derived fibroblasts were treated with 1 ng/mL TGFβ1 (or not, left lane) and 0, 1, 3, or 10 μM remodilin for 2 d. Four remodilins each inhibited smooth muscle α-actin (ACTA2) or fibronectin-1 (FN1) protein expression (markers of MFT).

MDA-MB-231 cells [2] = assay: Spheroid invasion into collagen gels; format: cell-based, human; conditions: 10 µM remodilin; 48 hrs; collagen 2 mg/mL; DMEM 0.5% FBS; vs 0.1% DMSO
Protocol: FIG. 3 MDA-MB-231 cells were grown into spheroids, then allowed to migrate into collagen gels in DMEM containing 0.5% FBS and remodilin (10 µM remodilin 39 [top row] or remodilin 83 [bottom row]) or diluent (0.1% DMSO) for 48 hrs (representative 48 hr images shown).
(§1) Remodilins 39 and 83 each slowed the invasion of triple negative MDA-MB-231 human breast cancer cells from spheroids into a surrounding collagen gel (FIG. 3), and also slowed the serum-directed invasion MDA-MB-231-derived BM1 cells through Matrigel-coated transwells (FIG. 4). Remodilins 39 and 83 also slowed the migration of MDA-MB-231 cells in a scratch wound healing assay (FIG. 5).

[3] = test system: MDA-MB-231-derived BM1 cells; assay: 10% FBS-directed invasion through Matrigel-coated transwell membrane; format: cell-based, human; conditions: dose-dependent; n=3/condition
Text: FIG. 4 Remodilins 39 and 83 inhibited 10% FBS-directed invasion migration of MDA-MB-231-derived BM1 cells through a Matrigel-coated transwell mem-brane, in a dose-dependent fashion. Mean+SEM shown; n=3/condition. **P<0.01; ***P<0.001; ****P<0.0001.
as §1

MDA-MB-231 cells [4] = assay: Scratch wound healing migration assay; format: cell-based, human; conditions: dose-dependent; 1, 3, 10 uM; n=8 wells/condition
Protocol: Mean+SD shown; n=8 wells/condition. P<0.0001 for 1, 3, & 10 uM remodilin 39 vs DMSO (control) by 2-way ANOVA/Dunnett's.
as §1

MDA-MB-231 cells [5] = assay: Alamar blue assay (growth inhibition, cytotoxicity); format: cell-based, human; conditions: concentrations to at least 10 uM
[6] = In vivo PK and oral bioavailability, single dose; conditions: mouse, plasma, wild-type mice, 10 mg/kg single dose
Protocol: (§2) The in vivo bioavailability, plasma half-life, Cmax, and area under the curve (AUC) were determined after administration of single 10 mg/kg doses of remodilins 39 and 83 to mice (Table 1). Selected tissue concentrations of remodilins 39 and 83 after single oral doses of 10 or 50 mg/kg (FIG. 6). The PK properties of these remodilins differ substantially.

[7] = Tissue and plasma concentrations after single oral doses; format: in vivo; conditions: mice
Protocol: FIG. 6 Tissue and plasma remodilin concentrations after single oral doses (filled circles 50 mg/kg; open circles-10 mg/kg). […] The greater oral bioavailability, longer half-life, and inter-tissue variation of remodilin 83 concentration are readily evident. Mean+SEM shown; n=3/condition.
as §2
(§3) PK was re-evaluated after 14 days of intraperitoneal (IP) or oral BID dosing. […] Plasma levels after single or 15 consecutive once-daily IP 10 mg/kg doses of remodilin 39 were examined (FIG. 8). The plasma concentration of 10 μM remodilin 39 corresponds to 5314 ng/mL.

[8] = Tissue concentrations after 14 d BID dosing (IP or PO); format: in vivo; conditions: for concentration at 14 days: liver, lung, intraperitoneal
Protocol: Mean+SEM shown; n=3/condition. Dotted lines show concentration corresponding to 10 μM.
as §3
(§4) In the experiments corresponding to FIG. 7, remodilin 83 was dissolved in 20% Solutol in PBS.

[9] = Lipophilicity and dissolution in vehicles; format: physicochemical
Protocol: as §4

HIF1α [10] = assay: TGFβ-induced HIF1α accumulation in fibroblasts; format: cell-based, human; conditions: 48 hrs TGFβ treatment
Text: (§5) FIG. 12A-12B Remodilins inhibit accumulation of hypoxia-inducible factor-1 alpha (HIF1α) protein. FIG. 12A Effect of remodilin 83 on TGFβ-induced phosphorylation of AKT and ERK1/2 and TGFβ-induced HIF1α accumulation in human fibroblasts. FIG. 12B Both remodilins 39 and 83 inhibited HIF1α accumulation in HEK293 cells exposed to 6 hrs of hypoxia (1% 02).
(§6) The influence of remodilin 83 on HIF-1α accumulation in TGFβ-treated fibroblasts was examined. […] Similarly, both remodilins 39 and 83 inhibited HIF1α accumulation in HEK293 cells exposed to 6 hrs of hypoxia (1% O2; FIG. 12B). […] N—normoxia; H—hypoxia.

AKT = assay: TGFβ-induced AKT phosphorylation in fibroblasts; format: cell-based; conditions: human fibroblasts
Text: as §5, §6

ERK1/2 = assay: TGFβ-induced ERK1/2 phosphorylation in fibroblasts; format: cell-based; conditions: human fibroblasts
Text: as §5, §6

HIF1α [11] = assay: Hypoxia-induced HIF1α accumulation in HEK293 cells; format: cell-based; conditions: 6 hrs steady hypoxia (1% oxygen); 3 μM or 10 µM
Text: as §5, §6

HIF1α [12] = assay: Hypoxia-induced HIF1α accumulation in HEK293T cells (Western blot); format: cell-based; conditions: 6 hrs steady hypoxia; 3 or 10 μM
Text: FIG. 14A-14B Remodilins' effects on hypoxia-induced accumulation of HIF1α. […] FIG. 14B HIF1α was absent in cells ex-posed to 6 hrs normoxia (N).
OSA is a chronic, morbid disease affecting about 10% of the adult population, in which frequent episodes of upper airway collapse obstruct inspiratory airflow and cause IH. These episodes of IH disrupt sleep but perhaps more importantly accelerate multiple cardiometabolic abnormalities, including systemic hypertension, cardiovascular disease, stroke, and abnormal glucose metabolism. Therefore, remodilins were examined for their ability on inhibit hypoxia-induced accumulation of HIF1α, a transcription factor that mediates many of the adverse responses to IH.

[13] = test system: A549 lung adenocarcinoma cells; assay: Oxygen consumption rate and extracellular acidification rate; format: cell-based; conditions: treated at time=30 min
Protocol: FIG. 13A-13B Effect of remodilin 83 on oxygen consumption rate (OCR) and extracellular acidification rate (ECAR). FIG. 13A A549 cells were treated with remodilin 83 (open circles) or its vehicle (filled circles) at time=30 min, and oxygen consumption rate (OCR) was continuously measured over time. FIG. 13B A549 cells were treated with remodilin 83 (open circles) or its vehicle (filled circles) at time=30 min, and extracellular acidification rate (ECAR) was measured continuously over time. Cells were sequentially treated with oligomycin (ATP synthase inhibitor), FCCP (uncoupler) and antimycin A/rotenone (A+R) (complex III and I inhibitor).
A549 cells were treated with remodilin 83 (open circles) or its vehicle (filled circles) at time=30 min, and oxygen consumption rate (OCR) and extracellular acidification rate (ECAR) were measured continuously over time. Cells were sequentially treated with oligomycin (ATP synthase inhibitor), FCCP (uncoupler) and antimycin A/rotenone (A+R) (complex III and I inhibitor).

Sprague Dawley rats = assay: Intermittent hypoxia (IH)-induced systemic hypertension; format: in vivo
Protocol: FIG. 15A-15B Remodilin's effect on hypertension and weight. […] N=2/group; DO-Day 0 (prior to IH), D11-Day 11.
Remodilins were tested for their ability to inhibit the systemic hypertension induced in rats subjected to IH in vivo.

With `CC1CN(S(=O)(=O)c2ccc(NC(=O)c3ccc(Br)c(I)c3)cc2)CCN1` (centres unmarked) [Remodilin 83, 4-Bromo-3-iodo-N-(4-((3-methylpiperazin-1-yl)sulfonyl)phenyl)benzamide] the “TGFβ-stimulated transformation of human lung-derived fibroblasts to myofibroblast phenotype (ACTA2 or FN1 protein expression)” value [1] was “blunt TGFβ-stimulated transformation”, the “invasion of MDA-MB-231 cells from spheroids into collagen gels” value (MDA-MB-231 cells [2]) was “inhibited invasion” and the “10% FBS-directed invasion migration of BM1 cells through Matrigel-coated transwell membrane” value [3] was “inhibited”. The “migration of confluent MDA-MB-231 cells into circular scratch wound” value (MDA-MB-231 cells [4]) was “inhibited migration”, the “growth inhibition or cytotoxicity by Alamar blue assay” value (MDA-MB-231 cells [5]) was “Neither remodilin is growth-inhibitory or cytotoxic” and the bioavailability ([6]; po) was 22%. For the same molecule, the AUC [6] was 1300 ng·h/mL, the Cmax [6] was 0.38 µM and the half-life [6] was 8.4 h. For the same molecule, the “maintenance of tissue or plasma levels above 10 μM throughout the day” value ([7]; single oral doses) was “did not maintain tissue or plasma levels above 10 μM throughout the day”, the tissue distribution ([7]; single oral doses of 10 or 50 mg/kg (FIG. 6)) was “highly preferentially distributed to the lung” and the “variation of tissue concentrations over the 12-hour dosing period, IP” value ([8]; after 14 d BID dosing, given IP) was “relatively steady within each tissue”. The “variation of tissue concentrations over the 12-hour dosing period, PO” value ([8]; after 14 d BID dosing, given PO) was “greater variation over time”, the Brain levels ([8]; after 14 days BID dosing) was “low” and the concentration at 14 days ([8]; female, Balb/c, mouse, heart, kidney, 40 mg/kg BID IP, 14 days, read-out: levels in liver, heart, lung, and kidney) was roughly 10 µM. For the same molecule, the “mortality or gross clinical evidence of toxicity” value ([8]; mouse, in vivo) was “no mortality or gross clinical evidence of toxicity”, the concentration at 14 days ([8]; mouse, 14-day 40 mg/kg BID IP in 20% Solutol, female Balb/c mice, read-out: liver and lung concentrations) was less than 10 µM and the “lipophilicity / lipid solubility” value [9] was “lipophilic; also recorded: highly lipid soluble”. For the same molecule, the “dissolution in 20% Solutol or DMSO” value ([9]; 20% Solutol or DMSO) was “readily dissolved”, the “TGFβ-induced HIF1α accumulation in human fibroblasts” value (HIF1α [10]) was “this response was absent” and the “TGFβ-induced AKT phosphorylation” value (AKT) was “inhibited TGFβ-induced AKT phosphorylation”. The “TGFβ-induced ERK1/2 phosphorylation” value (ERK1/2) was “not TGFβ-induced ERK1/2 phosphorylation”, the “HIF1α accumulation in HEK293 cells exposed to hypoxia” value (HIF1α [11]) was “blunted HIF1α accumulation substantially” and the “HIF1α accumulation in HEK293T cells exposed to hypoxia” value (HIF1α [12]) was “inhibit the accumulation of HIF1α”. The “extracellular acidification rate (ECAR), marker of glycolysis” value [13] was “decreases both mitochondrial respiration and glycolysis”, the “oxygen consumption rate (OCR), mitochondrial respiration” value [13] was “decreases both mitochondrial respiration and glycolysis” and the “systemic hypertension induced by 10 days of IH (8 hrs/day)” value (Sprague Dawley rats; 20 mg/kg BID IP, N=2/group) was “blocks the systemic hypertension”. The “health as judged by clinical observation or weight gain” value (Sprague Dawley rats; D0 to D11) was “no obvious effect on health” and the “blood pressure in rats unexposed to IH” value (Sprague Dawley rats; N=2/group) was “little effect on blood pressure”.
